Like-named read-outs stand apart in the source and are kept apart here.
Columns and labels:
Format in all cases: biochemical
[1] = target: T1, Recombinant human HDAC1 (Homo sapiens, UniProt Q13547); test: Human HDAC enzyme inhibitor Fluor-de-Lys assay, HDAC1
T1 construct: FLAG (C); made in house
Procedure, shortened: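 Fluor-de-Lys format at room temperature (23° C.): compounds titrated 10-point, 1:3, preincubated with HDAC before substrate addition; HDAC1 run at 0.3 nM enzyme with 20 μM BML-KI104. Developer with excess HDAC inhibitor ends the reaction, and trypsin-liberated AMC fluorescence is the read-out.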

[2] = target: T2, HDAC6 (Homo sapiens, UniProt Q9UBN7); test: Human HDAC enzyme inhibitor Fluor-de-Lys assay, HDAC6
T2 sequence (Q9UBN7 1-1215): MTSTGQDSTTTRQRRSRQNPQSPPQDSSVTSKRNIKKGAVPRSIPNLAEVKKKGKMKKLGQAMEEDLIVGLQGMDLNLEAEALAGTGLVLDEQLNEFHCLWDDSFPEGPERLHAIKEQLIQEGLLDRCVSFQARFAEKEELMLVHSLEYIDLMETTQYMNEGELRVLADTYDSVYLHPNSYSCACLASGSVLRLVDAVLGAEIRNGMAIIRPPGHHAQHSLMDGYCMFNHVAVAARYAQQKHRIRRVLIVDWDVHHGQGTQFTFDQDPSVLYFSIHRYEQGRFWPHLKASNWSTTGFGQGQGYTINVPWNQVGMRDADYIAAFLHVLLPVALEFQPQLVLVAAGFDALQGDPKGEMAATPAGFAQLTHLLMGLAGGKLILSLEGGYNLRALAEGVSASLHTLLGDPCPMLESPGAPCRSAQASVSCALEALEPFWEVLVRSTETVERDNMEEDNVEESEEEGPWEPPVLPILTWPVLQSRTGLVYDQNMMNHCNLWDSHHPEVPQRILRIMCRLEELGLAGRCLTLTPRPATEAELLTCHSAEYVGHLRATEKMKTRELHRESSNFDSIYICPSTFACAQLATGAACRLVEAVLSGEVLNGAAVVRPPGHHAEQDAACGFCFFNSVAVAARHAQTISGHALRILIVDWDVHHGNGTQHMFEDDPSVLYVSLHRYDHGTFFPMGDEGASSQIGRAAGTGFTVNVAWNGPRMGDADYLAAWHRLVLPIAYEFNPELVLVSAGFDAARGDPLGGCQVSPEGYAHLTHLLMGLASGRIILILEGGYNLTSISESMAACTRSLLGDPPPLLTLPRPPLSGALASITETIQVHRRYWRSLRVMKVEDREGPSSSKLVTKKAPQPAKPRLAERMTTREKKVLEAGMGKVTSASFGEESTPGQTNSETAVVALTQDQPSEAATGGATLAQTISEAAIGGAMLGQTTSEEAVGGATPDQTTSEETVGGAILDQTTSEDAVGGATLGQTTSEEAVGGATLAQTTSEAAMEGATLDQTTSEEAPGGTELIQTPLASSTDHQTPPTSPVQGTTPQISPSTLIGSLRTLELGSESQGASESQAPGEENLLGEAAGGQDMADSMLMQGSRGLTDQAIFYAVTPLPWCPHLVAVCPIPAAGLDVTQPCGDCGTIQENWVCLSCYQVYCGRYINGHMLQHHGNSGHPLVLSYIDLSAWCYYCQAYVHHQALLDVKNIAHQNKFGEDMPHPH

[3] = target: T3, Recombinant human HDAC8 (Homo sapiens, UniProt Q9BY41); test: Human HDAC enzyme inhibitor Fluor-de-Lys assay, HDAC8
T3 construct: purchased Enzo Life Sciences BML-SE145-0100
T3 sequence (Q9BY41 1-377): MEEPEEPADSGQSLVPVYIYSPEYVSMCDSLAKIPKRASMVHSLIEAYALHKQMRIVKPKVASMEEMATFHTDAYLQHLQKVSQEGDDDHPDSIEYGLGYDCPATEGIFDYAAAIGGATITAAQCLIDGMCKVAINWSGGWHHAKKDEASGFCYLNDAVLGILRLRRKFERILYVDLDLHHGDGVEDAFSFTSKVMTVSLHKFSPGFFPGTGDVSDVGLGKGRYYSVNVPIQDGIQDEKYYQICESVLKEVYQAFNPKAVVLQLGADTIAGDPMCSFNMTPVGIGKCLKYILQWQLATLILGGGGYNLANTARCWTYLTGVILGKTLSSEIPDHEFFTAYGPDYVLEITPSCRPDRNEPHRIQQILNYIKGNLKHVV

[4] = target: T4, Recombinant human HDAC3/SMRT heterodimer (Homo sapiens, UniProt O15379); test: Human HDAC enzyme inhibitor Fluor-de-Lys assay, HDAC3/SMRT
T4 construct: FLAG (C); made in house
T4 sequence (O15379 whole entry): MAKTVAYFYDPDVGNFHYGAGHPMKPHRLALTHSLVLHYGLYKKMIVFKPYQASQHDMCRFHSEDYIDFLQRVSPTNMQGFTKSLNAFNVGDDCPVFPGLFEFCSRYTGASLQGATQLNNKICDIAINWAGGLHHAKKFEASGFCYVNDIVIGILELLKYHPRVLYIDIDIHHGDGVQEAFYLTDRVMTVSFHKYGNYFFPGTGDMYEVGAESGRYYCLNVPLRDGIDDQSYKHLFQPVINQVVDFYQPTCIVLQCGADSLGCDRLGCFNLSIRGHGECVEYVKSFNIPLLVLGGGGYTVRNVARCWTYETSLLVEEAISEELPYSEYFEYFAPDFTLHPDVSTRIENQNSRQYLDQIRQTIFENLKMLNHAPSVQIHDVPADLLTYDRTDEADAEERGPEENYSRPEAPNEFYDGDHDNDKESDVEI
T4 sequence (Q9Y618 1-899 partner limits assumed): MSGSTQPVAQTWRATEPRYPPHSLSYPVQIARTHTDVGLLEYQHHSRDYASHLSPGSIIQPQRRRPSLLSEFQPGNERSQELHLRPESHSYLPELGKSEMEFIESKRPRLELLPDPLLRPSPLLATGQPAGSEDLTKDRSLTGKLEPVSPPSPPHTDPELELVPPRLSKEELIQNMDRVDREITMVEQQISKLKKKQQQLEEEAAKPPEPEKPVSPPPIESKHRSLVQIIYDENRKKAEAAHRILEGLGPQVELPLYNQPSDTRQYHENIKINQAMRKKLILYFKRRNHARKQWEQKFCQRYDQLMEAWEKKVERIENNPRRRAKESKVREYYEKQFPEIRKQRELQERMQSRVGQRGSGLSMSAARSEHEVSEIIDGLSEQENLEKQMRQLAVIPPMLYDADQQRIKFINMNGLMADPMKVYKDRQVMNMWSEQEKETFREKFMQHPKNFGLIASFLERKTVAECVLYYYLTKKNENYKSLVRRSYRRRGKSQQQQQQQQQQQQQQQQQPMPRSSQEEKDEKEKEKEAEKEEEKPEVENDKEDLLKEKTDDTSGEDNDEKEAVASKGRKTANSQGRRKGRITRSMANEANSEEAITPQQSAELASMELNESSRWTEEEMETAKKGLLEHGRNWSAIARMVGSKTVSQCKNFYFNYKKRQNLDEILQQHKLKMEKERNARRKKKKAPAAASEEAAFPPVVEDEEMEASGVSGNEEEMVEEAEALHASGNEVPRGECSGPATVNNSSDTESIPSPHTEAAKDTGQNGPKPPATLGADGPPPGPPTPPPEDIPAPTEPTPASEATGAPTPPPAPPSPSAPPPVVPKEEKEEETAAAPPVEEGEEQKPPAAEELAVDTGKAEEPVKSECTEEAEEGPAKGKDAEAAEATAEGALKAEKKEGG

[5] = recombinant human HDAC1, Fluor-de-Lys assay
[6] = recombinant human HDAC8, Fluor-de-Lys assay

T1 sequence (Q13547 whole entry): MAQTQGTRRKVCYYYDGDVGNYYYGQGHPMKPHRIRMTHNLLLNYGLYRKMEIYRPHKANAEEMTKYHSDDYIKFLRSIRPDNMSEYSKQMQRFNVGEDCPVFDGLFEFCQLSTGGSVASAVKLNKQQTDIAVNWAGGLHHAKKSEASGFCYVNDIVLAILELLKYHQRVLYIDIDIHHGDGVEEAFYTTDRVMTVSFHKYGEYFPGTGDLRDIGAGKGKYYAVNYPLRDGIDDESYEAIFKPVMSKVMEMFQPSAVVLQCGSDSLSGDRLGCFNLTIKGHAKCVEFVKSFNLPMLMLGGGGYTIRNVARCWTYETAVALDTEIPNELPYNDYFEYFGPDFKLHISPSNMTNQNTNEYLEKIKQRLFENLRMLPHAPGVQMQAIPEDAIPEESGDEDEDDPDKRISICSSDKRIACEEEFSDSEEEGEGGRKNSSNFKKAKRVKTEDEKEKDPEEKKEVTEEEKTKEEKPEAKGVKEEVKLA

Row | SMILES | IC50 [1, 5] [nM] | IC50 ([2]; HDAC6, Fluor-de-Lys assay) [nM] | IC50 [3, 6] [nM] | IC50 ([4]; recombinant human HDAC3/SMRT, Fluor-de-Lys assay) [nM] | IC50 [1] [nM] | IC50 [4] [nM] | IC50 [2] [nM] | IC50 [3] [nM]
1 | CCC(=O)CCCCC[C@H](NC(=O)[C@H]1CC12CN(C)C2)c1ncc(-c2cc3ccc(C)nc3cc2OC)o1 (single isomer, unassigned) [Compound 230] | 0.4 | 396 | > 900 | – | – | – | – | –
2 | CCC(=O)CCCCC[C@H](NC(=O)[C@@H]1CC12CN(C)C2)c1ncc(-c2cc3ccc(C)nc3cc2OC)o1 (single isomer, unassigned) [Compound 231] | 1.26 | 220 | > 900 | – | – | – | – | –
3 | CCC(=O)CCCCC[C@H](NC(=O)C1CC12CC1CCC(C2)N1C)c1ncc(-c2ccc3ncccc3c2)[nH]1 (single isomer, unassigned) [Compound 242] | 3.94 | 133 | 5100 | < 1.5 | – | – | – | –
4 | CCC(=O)CCCCC[C@H](NC(=O)[C@H]1CC12CCN(C)CC2)c1ncc(-c2ccc3nc(C(F)(F)F)ccc3c2)o1 [Compound 78, (1S)-6-methyl-N-[(1S)-7-oxo-1-{5-[2-(trifluoromethyl)quinolin-6-yl]-1,3-oxazol-2-yl}nonyl]-6-azaspiro[2.5]octane-1-carboxamide] | – | – | – | – | 18.3 | 13.8 | 33500 | > 45000
5 | CCC(=O)CCCCC[C@H](NC(=O)[C@H]1CC12CCN(C)CC2)c1ncc(-c2ccc3nc(C)ccc3c2)o1 [Compound 80] | – | – | – | – | 2.89 | 2.96 | 1680 | > 45000
6 | CCC(=O)CCCCC[C@H](NC(=O)[C@H]1CC12CCN(C)CC2)c1nc(Cl)c(-c2cc3ccccc3nc2O)[nH]1 [Compound 81, (1S)—N-{(1S)-1-[4-chloro-5-(2-hydroxyquinolin-3-yl)-1H-imidazol-2-yl]-7-oxononyl}-6-methyl-6-azaspiro[2.5]octane-1-carboxamide] | – | – | – | – | 88.2 | 69 | 3870 | 5350
7 | CCC(=O)CCCCC[C@H](NC(=O)[C@H]1CC12CCN(C(C)C)CC2)c1ncc(-c2ccc3nc(C)ccc3c2)[nH]1 [Compound 83] | – | – | – | – | < 1.5 | < 1.5 | 2620 | 15200
8 | CN1CCC2(CC1)C[C@@H]2C(=O)N[C@@H](CCCCCC(=O)CC1CC1)c1ncc(-c2ccc(F)cc2)[nH]1 [Compound 84] | – | – | – | – | 9.95 | 16.3 | 3780 | 14300
9 | CCC(=O)CCCCC[C@H](NC(=O)[C@H]1CC12CCN(C)CC2)c1ncc(-c2coc3ccccc3c2=O)[nH]1 [Compound 86] | – | – | – | – | 15.9 | 12.1 | 3330 | 3170
10 | CCC(=O)CCCCC[C@H](NC(=O)[C@H]1CC12CCN(C)CC2)c1ncc(-c2ccc3ncoc3c2)[nH]1 [Compound 89] | – | – | – | – | 3.63 | 2.27 | 7590 | 9700
11 | CCC(=O)CCCCC[C@H](NC(=O)[C@H]1CC12CCN(C)CC2)c1ncc(-c2ccc3cc(C#N)ccc3c2)[nH]1 [Compound 90] | – | – | – | – | 0.28 | 0.38 | 1010 | 2640
12 | CCC(=O)CCCCC[C@H](NC(=O)[C@H]1CC12CCN(C)CC2)c1[nH]c(-c2ccc(F)cc2)nc1Cl [Compound 91] | – | – | – | – | 4.38 | 3.26 | 27500 | 31900
13 | CCC(=O)CCCCC[C@H](NC(=O)[C@H]1CC12CCN(CC)CC2)c1ncc(-c2ccc(-c3nccs3)cc2)o1 [Compound 93] | – | – | – | – | 7.15 | 5.76 | 955 | 31800
14 | CCC(=O)CCCCC[C@H](NC(=O)[C@H]1CC12CCN(CC)CC2)c1ncc(-c2ccc(-c3ncco3)cc2)o1 [Compound 94] | – | – | – | – | 9.13 | 4.01 | 2300 | 44200
15 | CCC(=O)CCCCC[C@H](NC(=O)[C@H]1CC12CCN(CC)CC2)c1ncc(-c2ccc(-n3cccn3)cc2)o1 [Compound 95] | – | – | – | – | 5.26 | 3.95 | 1250 | 20500
16 | CCC(=O)CCCCC[C@H](NC(=O)[C@H]1CC12CCN(C(C)C)CC2)c1ncc(-c2cc3ccccc3nc2OC)o1 [Compound 99] | – | – | – | – | 3.55 | – | 110 | 32900
17 | CCC(=O)CCCCC[C@H](NC(=O)C1CC12CCN(CC)CC2)c1nc(-c2ccc(F)cc2)[nH]c1-c1cnn(C)c1 (stereo partly shown) [Compound 248] | 5.84 | > 45000 | 22300 | – | – | – | – | –
18 | CCC(=O)CCCCC[C@H](NC(=O)C1CC12CCN(CC)CC2)c1nc(-c2ccc(F)cc2)[nH]c1-c1ccsc1 (stereo partly shown) [Compound 250] | 80.7 | 21900 | 38300 | – | – | – | – | –
19 | CCC(=O)CCCCC[C@H](NC(=O)[C@H]1CC12CCN(C)CC2)c1ncc(-c2cnc(-n3cc(C)cn3)nc2)[nH]1 [Compound 257] | 64.8 | 36600 | 10400 | – | – | – | – | –
20 | CCC(=O)CCCCC[C@H](NC(=O)[C@H]1CC12CCN(C)CC2)c1ncc(-c2ccc(C(=O)NC3CCOC3)cc2)[nH]1 (stereo partly shown) [Compound 258] | 7.82 | 38700 | 16400 | – | – | – | – | –
21 | CCC(=O)CCCCC[C@H](NC(=O)[C@H]1CC12CCN(C)CC2)c1ncc(-c2cnc3cccnc3c2)[nH]1 [Compound 259] | 23.8 | 3140 | 6140 | – | – | – | – | –
22 | CCC(=O)CCCCC[C@H](NC(=O)[C@H]1CC12CCN(C)CC2)c1ncc(-c2ccc(-n3nc(C)cc3C)cc2)[nH]1 [Compound 260] | 13.1 | 28400 | > 15000 | – | – | – | – | –
23 | CCC(=O)CCCCC[C@H](NC(=O)[C@H]1CC12CCN(C)CC2)c1ncc(-c2ccnc(N3CCOCC3)c2F)[nH]1 [Compound 261] | 25.2 | 2470 | 4590 | – | – | – | – | –
24 | CCC(=O)CCCCC[C@H](NC(=O)[C@H]1CC12CCN(C)CC2)c1ncc(-c2ccc(-c3cccnc3)nc2)[nH]1 [Compound 262] | 4.42 | 33500 | 12600 | – | – | – | – | –
25 | CCC(=O)CCCCC[C@H](NC(=O)[C@H]1CC12CCN(C)CC2)c1ncc(-c2cn(C)c3ccccc23)[nH]1 [Compound 264] | 1.79 | 1710 | 1140 | – | – | – | – | –
26 | CCOc1ncc(-c2cnc([C@H](CCCCCC(=O)CC)NC(=O)[C@H]3CC34CCN(C)CC4)[nH]2)cn1 [Compound 266] | 155 | 42500 | 19300 | – | – | – | – | –
27 | CCC(=O)CCCCC[C@H](NC(=O)[C@H]1CC12CCN(C)CC2)c1ncc(-c2ccc(C)nc2OC)[nH]1 [Compound 268] | 3.89 | 1780 | 6080 | – | – | – | – | –
28 | CCC(=O)CCCCC[C@H](NC(=O)[C@@H]1CC12CCN(C)CC2)c1nnc(-c2cc3ccccc3nc2OC)o1 [Compound 305] | 47.3 | 636 | > 45000 | – | – | – | – | –
29 | CCC(=O)CCCCC[C@H](NC(=O)[C@H]1CC12CCN(C)CC2)c1nnc(-c2cc3ccccc3nc2OC)o1 [Compound 306] | 12.9 | 1170 | > 45000 | – | – | – | – | –
30 | CCC(=O)CCCCC[C@H](NC(=O)CC1CC2(C1)CN(C)C2)c1ncc(-c2cc3ccccc3nc2OC)[nH]1 [Compound 314] | 1.03 | 405 | 2570 | – | – | – | – | –

From patent publication US12590099B2, “Inhibitors of histone deacetylase useful for the treatment or prevention of HIV infection” (Merck Sharp & Dohme LLC, priority 2018, dated 2026)
